Data as given in patent US20150118222A1, “TREATMENT USING BRUTON'S TYROSINE KINASE INHIBITORS AND IMMUNOTHERAPY” (Pharmacyclics, Inc., priority 2013, published 2015).
Where two headings read alike, the source gives them in different places.

Tests used:
[1] = test system: 4T1-Luc cells; conditions: 4T1, model of triple negative breast cancer
[2] = test system: CT26 cells; test: CT26 colon cancer mouse model (Example 8); assay type: in vivo, BALB/c mice; conditions: CT26 colon carcinoma line
[3] = test system: CT26 cells
[4] = test system: A20; test: IC50 of ibrutinib in A20 mouse lymphoma cells (FIG. 19B); assay type: cell-based; conditions: read-out: IC50 of ibrutinib, FIG. 19 Panel B

SMILES: C=CC(=O)N1CCC[C@@H](n2nc(-c3ccc(Oc4ccccc4)cc3)c3c(N)ncnc32)C1 [ibrutinib, 1-((R)-3-(4-amino-3-(4-phenoxyphenyl)-1H-pyrazolo[3,4-d]pyrimidin-1-yl)piperidin-1-yl)prop-2-en-1-one]
- sensitivity of the 4T1 cell line to ibrutinib [1]: not sensitive
- sensitivity of the CT26 cell line to ibrutinib [2]: not sensitive
- sensitivity of the CT26 cell line to ibrutinib [3]: not sensitive
- IC50 [4]: > 10 µM
